Patent publication US20100129343A1, “Use Of A Compound For Enhancing The Expression Of Membrane Proteins On The Cell Surface” (Axentis Pharma AG, priority 2004, published 2010)
“Also recorded” adds a separate entry of the source.

What was measured:
Format in all cases: cell-based
[1] = test system: CFTR-ΔF508; test: Immunoblot for GFP-tagged CFTR-ΔF508 expressed in HEK293 cells; settings: 16 h, endoglycosidase H treated extract
Method: HEK293 cells (1*10^6 cells) were transfected with plasmids encoding CFTR or CFTR-ΔF508 (GFP-tagged) and/or co-transfected with effector plasmids. After 16h, the cells were treated with the varying concentrations of compounds. After 24h, the cells were harvested in phosphate-buffered saline, lysed by a freeze-thaw cycle and homogenized by sonication. The homogenate was resuspended in reducing Laemmli sample buffer (50 mM Tris.HCl, pH 6.8, 20% glycerol, 0.1% bromphenol blue, 2% SDS and 20 mM dithiothreitol); aliquots (15% of the original culture) were resolved on a denaturing polyacrylamide gel (monomer concentration in the stacking gel and in the running gel 4 and 8% respectively) and electrophoretically transferred to a nitrocellulose membrane. Immunodetection was done with an antiserum directed against GFP as the primary antibody and an anti-rabbit IgG coupled to horseradish peroxidase as the secondary antibody.
In a first example, Membranes from transfected cells were prepared and immunoblotted for GFP-tagged CFTR or CFTR-ΔF508, respectively (by using an antibody directed against the fluorescent protein).
The membrane extract was also treated endoglycosidase H. The rationale for this experiment is as follows: membrane proteins are core glycosylated in the endoplasmatic reticulum. Core gylcosylation is sensitive to endoglycosidase H. If the protein has reached the Golgi (and then trafficked to the plasma membrane), it acquires additional sugar moieties and becomes resistant to endoglycosidase H. It is evident from lane 3 in FIG. 6 that endoglycosidase H treatment reduces the apparent size of CFTR; thus, the bulk of the protein is still in the ER. The following lanes examine the expression of CFTR-ΔF508 (all extracts were treated with endoglycosidase H): lane 4 is the control, that is cells expressing CFTR-ΔF508; in lanes 5, 6, 7 and 8 cells expressing CFTR-ΔF508 were treated overnight (i.e. for 16 h) with 100 nM MG132, 20 μM kifunensine, 1 μM and 100 nM bortezomib, respectively.

[2] = test system: CFTR-ΔF508; test: FACS monitoring of GFP-tagged CFTR-ΔF508 expression in HEK293 cells
Method: (§1) Cultured HEK293 cells were transfected with plasmids encoding CFTR or CFTR-ΔF508 (GFP-tagged) and/or co-transfected with plasmids encoding USP4 (or an appropriate control plasmid) by using the CaPO4-precipitation method. Sixteen hours after transfection the cells were treated with varying concentrations of compounds. At a specific time point (here 24 h) the cells are trypsinized, fixed in ethanol, permeabilized and stained with propidium iodide (PI). The stained cells are subjected to FACS analysis
Because CFTR is tagged with a fluorescent protein, expression in individual cells can be monitored by fluorescence activated cell sorting (FACS). By contrast with fluorescence microscopy (where individual cells are picked), FACS allows to survey the entire cell population. In addition, FACS has the advantage that it allows for reasonable sample throughput; finally, automation and scale-up is readily possible. […]
The original data set is shown on the right hand side of the figures, respectively (see e.g. FIG. 7c): the x-axis is the propidium iodide fluorescence (note that the scale is linear). The y-axis is the GFP-fluorescence (=fluorescence associated with CFTR; note that the scale is logarithmic) and each dot corresponds to a cell. […]

[3] = test system: HEK293 cells; test: FACS propidium iodide staining: cell cycle distribution / apoptosis of HEK293 cells
Method: as §1
Transiently transfected HEK293 cells were fixed in ethanol 24 h after transfection as mentioned above and then stained with propidium iodide to label the DNA: the rationale was to examine the distribution of cells in the cell cycle (=to see if the expression of CFTR or of CFTR-ΔF508 was toxic or if the compounds employed killed the cells/drove them into apoptosis).
One can plot the cell counts against the propidium iodide fluorescence of the transfected cells (such as shown in, for example, FIG. 7b): This gives a peak of cells (denoted by M1) that have a 2n content of DNA (G1-cells), a shoulder of cells that have a DNA content of larger than 2n (denoted by M3 and representing cells that are in S-phase) and a second peak of cells that have a DNA content of 4n (denoted by M2 and representing cells in G2 and M-phase).

[4] = target: T1, A2A-receptor (Rattus norvegicus, UniProt P30543); test: [3H]ZM241385 saturation binding to membranes from PC12 cells (endogenous A2A-receptor); settings: 100 μM chloroquine for 3h
T1 construct: PC12 cells (that endogenously express the A2A-receptor); endogenous in cells; host or cells: PC12 (rat pheochromocytoma), membranes
T1 sequence (P30543 whole entry): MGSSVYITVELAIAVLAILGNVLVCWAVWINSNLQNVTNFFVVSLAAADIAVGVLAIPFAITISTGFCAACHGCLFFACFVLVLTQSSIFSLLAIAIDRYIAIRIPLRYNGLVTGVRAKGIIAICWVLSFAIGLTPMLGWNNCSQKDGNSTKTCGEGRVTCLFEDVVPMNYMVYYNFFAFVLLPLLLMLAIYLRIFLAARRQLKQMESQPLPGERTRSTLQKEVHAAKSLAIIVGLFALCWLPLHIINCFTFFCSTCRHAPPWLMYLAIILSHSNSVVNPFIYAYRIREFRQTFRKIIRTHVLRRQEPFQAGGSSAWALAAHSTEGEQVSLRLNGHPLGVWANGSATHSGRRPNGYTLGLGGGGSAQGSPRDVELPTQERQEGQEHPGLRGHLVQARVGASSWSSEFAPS
Method: Membranes were prepared from PC12 cells, which had been incubated in the presence or in the absence of 50 μM MG132 or 100 μM chloroquine for 3h, and were incubated in buffer containing the indicated concentrations of [^3H]ZM241385 in the presence of 100 μM GTPγS.
Membranes (100 μg/assay) that had been prepared from PC12 cells or HEK293 cells transiently transfected with the appropriate plasmids were incubated in a final volume of 0.3 ml containing 50 mM Tris.HCl (pH 8.0), 1 mM EDTA, 5 mM MgCl2, 8 μg/ml adenosine deaminase and concentrations of [^3H]ZM241385 (specific activity ˜20 Ci/mmol) covering the range of 0.2 to 20 nM in the presence of 100 μM GTPγS (Klinger et al., 2002). After 60 min at room temperature, the reaction was terminated by rapid filtration over glass fiber filters. Nonspecific binding was determined in the presence of 10 μM XAC and amounted to 40% at the highest concentration of [^3H]ZM241385. The data points were fitted by non-linear regression to the equation describing a rectangular hyperbola. Assays were performed in duplicate.

O=C1N[C@@H]2[C@@H](O)[C@@H](O)[C@H](O)[C@@H](CO)N2C1=O [kifunensine]
accumulation of CFTR-ΔF508 (intensity of staining vs control lane) ([1]; 20 μM kifunensine): led to the accumulation of CFTR-ΔF508

CC(C)C[C@H](NC(=O)[C@H](Cc1ccccc1)NC(=O)c1cnccn1)B(O)O [Bortezomib, N-(2-pyrazine)carbonyl-L-phenylalanine-L-leucine-boronic acid]
CFTR-ΔF508-associated fluorescence ([2]; 10 nM bortezomib): expression of CFTR is increased; also recorded: substantially increases the level of CFTR-ΔF508
CFTR-ΔF508-associated fluorescence ([2]; 100 nM bortezomib): expression of CFTR is increased
accumulation of CFTR-ΔF508 (intensity of staining vs control lane) ([1]; 100 nM bortezomib): led to the accumulation of CFTR-ΔF508; also recorded: more effective than 1 μM bortezomib
accumulation of CFTR-ΔF508 (intensity of staining vs control lane) ([1]; 1 μM bortezomib): led to the accumulation of CFTR-ΔF508
cell cycle distribution ([3]; 10 nM bortezomib, CFTR-ΔF508 expressing cells): essentially the same as the one shown in control cells
peak of the G1-cells (M1) ([3]; 100 nM Bortezomib, CFTR-ΔF508 expressing cells): greatly reduced
number of cells with low propidium iodide fluorescence (apoptotic) ([3]; 100 nM bortezomib): number of cells with low propidium iodide fluorescence increases
number of cells with low propidium iodide fluorescence (apoptotic) ([3]; 1 μM Bortezomib): number of cells with low propidium iodide fluorescence increases
peak of the G1-cells (M1) ([3]; 1 μM Bortezomib, CFTR-ΔF508 expressing cells): greatly reduced
cell mortality / apoptosis, general statement ([3]; within the therapeutic window (Bortezomib), very small dosage (MG132)): no increased cell mortality is observed

CCN(CC)CCCC(C)Nc1ccnc2cc(Cl)ccc12 (stereo not drawn) [choloroquine, chloroquine]
A2A-receptor levels [4]: did not affect the A2A-receptor levels
